Test results: PubChem BioAssay AID282 (DTP/NCI, 2004)
Where “and” joins values, the source holds several entries; their conditions need not be identical. Equal entries are not always repeated. Inconclusive results and toxic doses are left out.

System: BDF1 mice, L1210 terephthalanilide-resistant leukemia ip, survival T/C
Assay: NCI In Vivo Anticancer Drug Screen. Data for tumor model L1210 Leukemia resistant to A Terephthalanilide; NSC 38280 (intraperitoneal) in B6D2F1 (BDF1) mice
Details: endpoint: mean survival time, higher = longer survival
Experimental: The antitumor activity of compounds was measured in mice bearing transplantable tumors. Survival or tumor size were measured and the results are expressed as the measurement made in the treated group (T) divided by the measurement made in the vehicle treated control group (C). The tumor model used in this assay is L1210 Leukemia resistant to A Terephthalanilide; NSC 38280 (intraperitoneal) in B6D2F1 (BDF1) mice

[1] = dose: 2.5 mg/kg/injection, schedule: Q01DX010 (ip), vehicle: saline
[2] = dose: 5.0 mg/kg/injection, schedule: Q01DX010 (ip), vehicle: saline
[3] = dose: 5.0 mg/kg/injection, schedule: Q01DX Z (ip), vehicle: carboxymethylcellulose (CMC)
[4] = dose: 10.0 mg/kg/injection, schedule: Q01DX010 (ip), vehicle: saline
[5] = dose: 20.0 mg/kg/injection, schedule: Q01DX Z (ip), vehicle: carboxymethylcellulose (CMC)
[6] = dose: 2.5 mg/kg/injection, schedule: Q01DX Z (ip), vehicle: carboxymethylcellulose (CMC)
[7] = dose: 10.0 mg/kg/injection, schedule: Q01DX Z (ip), vehicle: carboxymethylcellulose (CMC)
[8] = dose: 3.13 mg/kg/injection, schedule: Q01DX010 (ip), vehicle: saline
[9] = dose: 6.25 mg/kg/injection, schedule: Q01DX010 (ip), vehicle: saline
[10] = dose: 12.5 mg/kg/injection, schedule: Q01DX010 (ip), vehicle: saline
[11] = dose: 25.0 mg/kg/injection, schedule: Q01DX010 (ip), vehicle: saline
[12] = dose: 25.0 mg/kg/injection, schedule: Q01DX Z (ip), vehicle: carboxymethylcellulose (CMC)
[13] = dose: 100.0 mg/kg/injection, schedule: Q01DX Z (ip), vehicle: carboxymethylcellulose (CMC)
[14] = dose: 125.0 micrograms/kg/injection, schedule: Q01DX010 (ip), vehicle: saline
[15] = dose: 12.5 mg/kg/injection, schedule: Q01DX Z (ip), vehicle: carboxymethylcellulose (CMC)

`S=P(N1CCOCC1)(N1CC1)N1CC1` was tested, and the T/C (dose: 1.87 mg/kg/injection, schedule: Q01DX Z (ip), vehicle: carboxymethylcellulose (CMC)) was 98 % of control and 111 % of control, the T/C [1] was 92 % of control and 101 % of control and the T/C (dose: 3.75 mg/kg/injection, schedule: Q01DX Z (ip), vehicle: carboxymethylcellulose (CMC)) was 107 % of control and 115 % of control. The T/C [2] was 97 % of control and 102 % of control, the T/C [3] was 98 % of control and 114 % of control and the T/C [4] was 99 % of control and 100 % of control. For the same compound, the T/C (dose: 20.0 mg/kg/injection, schedule: Q01DX010 (ip), vehicle: saline) was 101 % of control, the T/C [5] was 159 % of control and the T/C (dose: 40.0 mg/kg/injection, schedule: Q01DX Z (ip), vehicle: carboxymethylcellulose (CMC)) was 104 % of control.
With `Nc1nc(=S)c2[nH]cnc2[nH]1` the T/C (dose: 0.5 mg/kg/injection, schedule: Q01DX Z (ip), vehicle: carboxymethylcellulose (CMC)) was 165 % of control, the T/C (dose: 1.0 mg/kg/injection, schedule: Q01DX Z (ip), vehicle: carboxymethylcellulose (CMC)) was 158 % of control and the T/C (dose: 1.25 mg/kg/injection, schedule: Q01DX010 (ip), vehicle: saline) was 156 % of control. For the same compound, the T/C [1] was 173 % of control, the T/C [6] was 159 % of control and the T/C [2] was 108 % of control and 113 % of control. For the same compound, the T/C [3] was 109 % of control, the T/C [4] was 90 % of control and 98 % of control and the T/C [7] was 96 % of control and 116 % of control. The T/C (dose: 15.0 mg/kg/injection, schedule: Q01DX Z (ip), vehicle: carboxymethylcellulose (CMC)) was 106 % of control, the T/C [5] was 96 % of control and 101 % of control and the T/C (dose: 31.0 micrograms/kg/injection, schedule: Q01DX Z (ip), vehicle: carboxymethylcellulose (CMC)) was 107 % of control. For the same compound, the T/C (dose: 125.0 micrograms/kg/injection, schedule: Q01DX Z (ip), vehicle: carboxymethylcellulose (CMC)) was 110 % of control.
For `C[C@H]1C(=O)O[C@@H]2CCN3CC=C(COC(=O)[C@](C)(O)[C@@]1(C)O)[C@H]23`, the T/C [8] was 97 % of control, the T/C [9] was 102 % of control and the T/C [10] was 97 % of control and 106 % of control. The T/C [11] was 103 % of control and 106 % of control, the T/C [12] was 107 % of control and the T/C (dose: 50.0 mg/kg/injection, schedule: Q01DX010 (ip), vehicle: saline) was 100 % of control. For the same compound, the T/C (dose: 50.0 mg/kg/injection, schedule: Q01DX Z (ip), vehicle: carboxymethylcellulose (CMC)) was 100 % of control, the T/C [13] was 119 % of control and the T/C (dose: 200.0 mg/kg/injection, schedule: Q01DX Z (ip), vehicle: carboxymethylcellulose (CMC)) was 161 % of control.
`CCCNc1ncnc2[nH]ncc12` was tested, and the T/C [8] was 92 % of control and 103 % of control, the T/C [9] was 96 % of control and 108 % of control and the T/C [10] was 95 % of control and 101 % of control. The T/C (dose: 12.5 mg/kg/injection, schedule: Q01DX Z (ip), vehicle: saline) was 115 % of control, the T/C [11] was 92 % of control and 106 % of control and the T/C (dose: 50.0 mg/kg/injection, schedule: Q01DX Z (ip), vehicle: saline) was 93 % of control.
In the case of `CS(=O)(=O)OCCN(CCOS(C)(=O)=O)c1ccc(N=O)cc1`, the T/C (dose: 0.5 mg/kg/injection, schedule: Q01DX010 (ip), vehicle: saline) is reported as 122 % of control, the T/C (dose: 1.0 mg/kg/injection, schedule: Q01DX010 (ip), vehicle: saline) is reported as 115 % of control and the T/C (dose: 2.0 mg/kg/injection, schedule: Q01DX010 (ip), vehicle: saline) is reported as 98 % of control. The T/C [14] was 118 % of control and the T/C (dose: 1000.0 micrograms/kg/injection, schedule: Q01DX010 (ip), vehicle: saline) was 116 % of control.
For `CC(=O)O[C@]1(C(C)=O)CC[C@H]2[C@@H]3C[C@H](C)C4=CC(=O)C=C[C@]4(C)[C@@]3(F)[C@@H](O)C[C@@]21C`, the T/C (dose: 12.5 mg/kg/injection, schedule: Q01DX010 (sc), vehicle: steriod suspending solution) was 102 % of control, the T/C (dose: 25.0 mg/kg/injection, schedule: Q01DX010 (sc), vehicle: steriod suspending solution) was 98 % of control and the T/C (dose: 50.0 mg/kg/injection, schedule: Q01DX010 (sc), vehicle: steriod suspending solution) was 98 % of control. For the same compound, the T/C (dose: 50.0 mg/kg/injection, schedule: Q01DX Z (sc), vehicle: steriod suspending solution) was 102 % of control, the T/C (dose: 75.0 mg/kg/injection, schedule: Q01DX Z (sc), vehicle: steriod suspending solution) was 104 % of control and the T/C (dose: 100.0 mg/kg/injection, schedule: Q01DX010 (sc), vehicle: steriod suspending solution) was 91 % of control. For the same compound, the T/C (dose: 100.0 mg/kg/injection, schedule: Q01DX Z (sc), vehicle: steriod suspending solution) was 102 % of control and the T/C (dose: 150.0 mg/kg/injection, schedule: Q01DX Z (sc), vehicle: steriod suspending solution) was 102 % of control.
For `O=C(O)CCCc1ccc(N(CCCl)CCCl)cc1`, the T/C (dose: 2.0 mg/kg/injection, schedule: Q01DX Z (ip), vehicle: carboxymethylcellulose (CMC)) was 101 % of control, the T/C (dose: 3.0 mg/kg/injection, schedule: Q01DX Z (ip), vehicle: carboxymethylcellulose (CMC)) was 106 % of control and the T/C (dose: 4.0 mg/kg/injection, schedule: Q01DX Z (ip), vehicle: carboxymethylcellulose (CMC)) was 112 % of control. For the same compound, the T/C [3] was 119 % of control, the T/C (dose: 6.25 mg/kg/injection, schedule: Q01DX Z (ip), vehicle: carboxymethylcellulose (CMC)) was 115 % of control and the T/C [15] was 118 % of control.
In the case of `N#Cc1cn(C2OC(CO)C(O)C2O)c2ncnc(N)c12` (stereo not given), the T/C (dose: 31.3 micrograms/kg/injection, schedule: Q01DX010 (ip), vehicle: saline) is reported as 95 % of control, the T/C (dose: 62.5 micrograms/kg/injection, schedule: Q01DX010 (ip), vehicle: saline) is reported as 99 % of control and the T/C [14] is reported as 97 % of control.
`S=c1nc[nH]c2nc[nH]c12` was tested, and the T/C [6] was 120 % of control, the T/C (dose: 7.5 mg/kg/injection, schedule: Q01DX Z (ip), vehicle: carboxymethylcellulose (CMC)) was 165 % of control and the T/C [7] was 172 % of control. For the same compound, the T/C [15] was 156 % of control, the T/C [12] was 152 % of control and the T/C (dose: 62.5 mg/kg/injection, schedule: Q01DX Z (ip), vehicle: carboxymethylcellulose (CMC)) was 120 % of control. The T/C [13] was 107 % of control.
In the case of `CC(=O)N(C)C`, the T/C (dose: 62.5 mg/kg/injection, schedule: Q01DX010 (ip), vehicle: saline) is reported as 94 % of control and 105 % of control, the T/C (dose: 125.0 mg/kg/injection, schedule: Q01DX010 (ip), vehicle: saline) is reported as 92 % of control and 97 % of control and the T/C (dose: 125.0 mg/kg/injection, schedule: Q01DX Z (ip), vehicle: saline) is reported as 108 % of control. For the same compound, the T/C (dose: 250.0 mg/kg/injection, schedule: Q01DX010 (ip), vehicle: saline) was 90 % of control and 96 % of control, the T/C (dose: 250.0 mg/kg/injection, schedule: Q01DX Z (ip), vehicle: saline) was 112 % of control and the T/C (dose: 500.0 mg/kg/injection, schedule: Q01DX010 (ip), vehicle: saline) was 96 % of control and 105 % of control. For the same compound, the T/C (dose: 500.0 mg/kg/injection, schedule: Q01DX Z (ip), vehicle: saline) was 110 % of control and the T/C (dose: 750.0 mg/kg/injection, schedule: Q01DX Z (ip), vehicle: saline) was 114 % of control.
In the case of `O=C(Nc1ccc(C2=NCCN2)cc1)c1ccc(C(=O)Nc2ccc(C3=NCCN3)cc2)c(F)c1`, the T/C (dose: 22.5 mg/kg/injection, schedule: Q01DX010 (ip), vehicle: saline) is reported as 100 % of control and 101 % of control, the T/C (dose: 45.0 mg/kg/injection, schedule: Q01DX010 (ip), vehicle: saline) is reported as 101 % of control and 102 % of control and the T/C (dose: 90.0 mg/kg/injection, schedule: Q01DX010 (ip), vehicle: saline) is reported as 103 % of control and 106 % of control. For the same compound, the T/C (dose: 180.0 mg/kg/injection, schedule: Q01DX010 (ip), vehicle: saline) was 100 % of control.
With `O=C(Nc1ccc(C2=NCCCN2)cc1)c1ccc(NC(=O)c2ccc(C3=NCCCN3)cc2)cc1` the T/C (dose: 2.0 mg/kg/injection, schedule: Q01DX010 (ip), vehicle: other) was 110 % of control and 112 % of control, the T/C (dose: 4.0 mg/kg/injection, schedule: Q01DX010 (ip), vehicle: other) was 123 % of control and the T/C (dose: 8.0 mg/kg/injection, schedule: Q01DX010 (ip), vehicle: other) was 102 % of control.
`O=C(Nc1ccc(C2=NCCN2)cc1)c1ccc(C(=O)Nc2ccc(C3=NCCN3)cc2)c([N+](=O)[O-])c1` was tested, and the T/C (dose: 6.0 mg/kg/injection, schedule: Q01DX010 (ip), vehicle: saline) was 102 % of control and 108 % of control, the T/C (dose: 8.0 mg/kg/injection, schedule: Q01DX010 (ip), vehicle: saline) was 100 % of control and 113 % of control and the T/C (dose: 12.0 mg/kg/injection, schedule: Q01DX010 (ip), vehicle: saline) was 112 % of control and 119 % of control. The T/C (dose: 18.0 mg/kg/injection, schedule: Q01DX010 (ip), vehicle: saline) was 89 % of control and 95 % of control.
